Assay results published in patent US8207212B2, “Methods and devices for epithelial protection during photodynamic therapy” (The General Hospital Corporation, priority 2003, dated 2012).

Key:
[1] = test system: rat epidermal keratinocyte (REK) cells; assay: PpIX formation in rat epidermal keratinocyte cells incubated with ALA at different temperatures; assay type: cell-based; details: 0.5 mM ALA, after three hours (FIG. 2)
Description: Two trials of rat epidermal keratinocyte (REK) cells were incubated with 0.5 mM ALA at temperatures of 21° C. and 37° C., respectively, for varying times. […] Accordingly, a temperature gradient of about 16° C. is more than sufficient to inhibit metabolism of a photosensitizing agent in epidermal tissue surrounding a targeted treatment site.
Several trials of rat epidermal keratinocyte (REK) cells were incubated with various amounts of ALA ranging from 0.1 mM to 0.5 mM, at various temperatures ranging from 15° C. to 40° C.

[2] = test system: rat epidermal keratinocyte (REK) cells; assay: Effect of DOHA pre-incubation on ALA-induced PpIX formation in REK cells; assay type: cell-based; details: washed, then 0.25 mM ALA for 3 hours (FIG. 4)
Description: Several trials of rat epidermal keratinocyte (REK) cells were pre-incubated with various amounts of 4-dioxoheptanoic acid (DOHA) ranging from 1^−8 M to 1^−4 M. The cells were then washed, and incubated with 0.25 mM ALA for 3 hours.

[3] = test system: human skin; assay: PpIX fluorescence imaging in human skin after topical DOHA followed by topical ALA; details: human skin in vivo, DOHA topical 0.1%, 0.3%, 1% for 1 hour, followed by topical 5% ALA (FIG. 6)
Description: DOHA was topically applied to human skin in concentrations of (a) 0.1%, (b) 0.3%, and (c) 1% for 1 hour, followed by topical application of 5% ALA. PpIX fluorescence was then imaged.

Row | Compound | PpIX concentration ([1]; 21° C.) | PpIX concentration ([1]; 37° C.) | PpIX formation ([2]; REK cells pre-incubated with DOHA at concentrations greater than 10^−5 M) | PpIX formation ([2]; REK cells pre-incubated with DOHA at concentrations greater than 10^−7 M) | PpIX formation (fluorescence) [3]
1 | NCC(=O)CCC(=O)O [ALA, aminolevulinic acid] | less than 50 pmol/10^6 | greater than 400 pmol/10^6 | – | – | –
2 | CC(=O)CC(=O)CCC(=O)O [DOHA, 4-dioxoheptanoic acid] | – | – | even further chemical inhibition | significantly inhibited | effective to chemically inhibit PpIX formation
